Experiments:
RUP3 = molecular target: T1, RUP3 (Homo sapiens, UniProt Q8TDV5); assay: 96-Well Cyclic AMP Membrane Assay for RUP3 (Membrane Cyclase Assay); type: biochemical; details: RUP3 membranes, cAMP Flashplate
T1 construct: expressed in transfected cells
T1 sequence (Q8TDV5 with tags, fused parts or gaps): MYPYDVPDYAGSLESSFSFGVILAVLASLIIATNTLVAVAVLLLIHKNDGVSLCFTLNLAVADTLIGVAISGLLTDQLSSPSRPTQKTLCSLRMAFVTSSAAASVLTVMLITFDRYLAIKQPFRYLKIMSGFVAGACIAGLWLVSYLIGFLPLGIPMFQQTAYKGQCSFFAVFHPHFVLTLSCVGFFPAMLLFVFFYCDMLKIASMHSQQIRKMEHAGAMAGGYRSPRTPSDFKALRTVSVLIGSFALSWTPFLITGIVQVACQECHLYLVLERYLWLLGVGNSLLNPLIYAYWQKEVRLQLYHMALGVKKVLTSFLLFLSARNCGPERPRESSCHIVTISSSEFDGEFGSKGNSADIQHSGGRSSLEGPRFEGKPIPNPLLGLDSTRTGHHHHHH
Description: 96-Well Cyclic AMP Membrane Assay for RUP3
• 1) Adenlyl cyclase Activation Flashplate Assay kit from Perkin Elmer—96 wells (SMP004B) and ^125I tracer (NEX130) which comes with the kit. […] All buffers and membranes should be kept cold (in ice bucket) while performing assay. 20 mM Hepes, pH7.4 1 mM MgCl2 100 mM NaCl 2× Regeneration Buffer (make in binding buffer): 20 mM Phosphocreatine (1.02 gm/200 ml binding buffer) 20 units Creatine phosphokinase (4 mg/200 ml) 20 uM GTP (make up 10.46 mg/ml in binding buffer and add 200 ul/200 ml) 0.2 mM ATP (22.04 mg/200 ml) […] (44.4 mg IBMX dissolved in 1 ml 100% DMSO first and then add the entire amount to 200 ml of buffer). Regeneration buffer can be aliquotted into 40-45 ml portions (in 50 ml sterile tubes) and kept frozen for up to 2 months. Simply put the tube in a beaker with room temperature water to thaw out the regeneration buffer on the day of the assay. […] (Prior to the start of the assay, the frozen membrane pellets for both RUP3 and CMV (cells transfected with an expression plasmid containing no RUP3 sequences), are suspended in binding buffer, usually 1 ml binding buffer for 1 plate of membranes. The membranes are kept in ice all the time, and a polytron (Brinkmann polytron, model # PT-3100) is used (setting 6-7, for 15-20 seconds) to obtain a homogeneous membrane suspension.) Protein concentration is determined by Bradford protein assay kit using instructions given in the kit, using the standard supplied with the kit as a reference. […]

HIT-T15 cells [1] = assay: Stimulation of insulin secretion in HIT-T15 cells (GSIS); type: cell-based, hamster; details: 15 mM glucose; level comparable to forskolin
Description: D. Stimulation of Insulin Secretion in HIT-T15 Cells
It is known that stimulation of cAMP in HIT-T15 cells causes an increase in insulin secretion when the glucose concentration in the culture media is changed from 3 mM to 15 mM. Thus, RUP3 ligands can also be tested for their ability to stimulate glucose-dependent insulin secretion (GSIS) in HIT-T15 cells. In this assay, 30,000 cells/well in a 12-well plate are incubated in culture media containing 3 mM glucose and no serum for 2 hours. The media is then changed; wells receive media containing either 3 mM or 15 mM glucose, and in both cases the media contains either vehicle (DMSO) or RUP3 ligand at a concentration of interest Some wells receive media containing 1 uM forskolin as a positive control. All conditions are tested in triplicate. Cells are incubated for 30 minutes, and the amount of insulin secreted into the media is determined by ELISA, using a kit from either Peninsula Laboratories (Cat # ELIS-7536) or Crystal Chem Inc. (Cat # 90060).
(§1) In the first of these, RUP3 agonists are used to stimulate HIT-T15 cells, which express RUP3 at significant levels, as indicated in the Northern blot shown in FIG. 4. […] In this example a RUP3 agonist can be evaluated for its ability to stimulate cAMP production in HIT cells in comparison to the level seen with the adenyl cyclase activator forskolin.

isolated rat islets = assay: Stimulation of insulin secretion in isolated rat islets; type: cell-based; details: 10 μM compound; increased glucose (e.g. 300 mg/dl)
Description: E. Stimulation of Insulin Secretion in Isolated Rat Islets
As with HIT-T15 cells, it is known that stimulation of cAMP in isolated rat islets causes an increase in insulin secretion when the glucose concentration in the culture media is changed from 60 mg/dl to 300 mg/dl. RUP3 is an endogenously expressed GPCR in the insulin-producing cells of rat islets. Thus, RUP3 ligands can also be tested for their ability to stimulate GSIS in rat islet cultures. This assay is performed as follows: • A. Select 75-150 islet equivalents (IEQ) for each assay condition using a dissecting microscope. Incubate overnight in low-glucose culture medium (Optional.) • B. Divide the islets evenly into triplicate samples of 25-40 islet equivalents per sample. Transfer to 40 μm mesh sterile cell strainers in wells of a 6-well plate with 5 ml of low (60 mg/dl) glucose Krebs-Ringers Buffer (KRB) assay medium. • C. Incubate 30 minutes (1 hour if overnight step skipped) at 37° C. and 5% CO2. Save the supernatants if a positive control for the RIA is desired. • D. Move strainers with islets to new wells with 5 ml/well low glucose KRB. […] Freeze and store at <−20° C. until insulin concentrations can be determined. • I. Insulin determinations are done as above, or by Linco Labs as a custom service, using their rat insulin RIA (Cat # RI-13K). […]

HIT-T15 cells [2] = assay: Stimulation of cAMP in HIT-T15 cells; type: cell-based, hamster; details: compared with adenyl cyclase activator forskolin
Description: C. Stimulation of cAMP in HIT-T15 Cells
HIT-T15 (ATCC CRL#1777) is an immortalized hamster insulin-producing cell line. These cells express RUP3 and therefore can be used to assess the ability of RUP3 ligands to stimulate or inhibit cAMP accumulation via its endogenously expressed receptor. In this assay, cells are grown to 80% confluence and then distributed into a 96-well Flashplate (50,000 cells/well) for detection of cAMP via a “cAMP Flashplate Assay” (NEN, Cat # SMP004). Briefly, cells are placed into anti-cAMP antibody-coated wells that contain either vehicle, the test ligand(s) at a concentration of interest, or 1 uM forskolin. The latter is a direct activator of adenylyl cyclase and serves as a positive control for stimulation of cAMP in HIT-T15 cells. All conditions are tested in triplicate. […] Bound ^125I-cAMP is detected using a Wallac Microbeta Counter. The amount of cAMP in each sample is determined by comparison to a standard curve, obtained by placing known concentrations of cAMP in some wells on the plate.
as §1

Compound	IC50 (RUP3)	insulin secretion in HIT cells (HIT-T15 cells [1])	glucose-dependent insulin release in isolated rat islets (isolated rat islets)	stimulation of cAMP in HIT-T15 cells (HIT-T15 cells [2])
CCCC1CCN(c2cc(Oc3ccc(C(=O)CC(=O)OC)cc3)ccc2[N+](=O)[O-])CC1 [Compound A30, 3-{4-[4-Nitro-3-(4-propyl-piperidin-1-yl)-phenoxy]-phenyl}-3-oxo-propionic acid methyl ester]	185 nM	stimulate insulin secretion	enhance glucose-dependent insulin release	robust stimulator of cAMP
CC(=O)CCc1ccc(Oc2ccc([N+](=O)[O-])c(N3CCC(Sc4ccccn4)CC3)c2)cc1 [Compound A51, 4-(4-{4-Nitro-3-[4-(pyridin-2-ylsulfanyl)-piperidin-1-yl]-phenoxy}-phenyl)-butan-2-one]	346 nM			
O=[N+]([O-])c1ccc(Oc2ccc(-n3cncn3)cc2)cc1N1CCC(Sc2ccccn2)CC1 [Compound A52, 2-{1-[2-Nitro-5-(4-[1,2,4]triazol-1-yl-phenoxy)-phenyl]-piperidin-4-ylsulfanyl}-pyridine]	230 nM			
